pIC50: −log10 of the molar value. Where a name gives a salt, the structure may show the parent alone.
Target: h12/15-LOX (Homo sapiens (Human), UniProt P16050)
Test: 12/15-LOX enzyme inhibition IC50 assay (Examples 1 and 2)
Format: biochemical
Conditions: for Emax: h12/15-LOX, read-out: Max % inhibition
Procedure: Enzyme was then added to the cuvettes. […] The % inhibition for each test compound concentration were calculated as follows: […]

Chain of h12/15-LOX (P16050 whole entry): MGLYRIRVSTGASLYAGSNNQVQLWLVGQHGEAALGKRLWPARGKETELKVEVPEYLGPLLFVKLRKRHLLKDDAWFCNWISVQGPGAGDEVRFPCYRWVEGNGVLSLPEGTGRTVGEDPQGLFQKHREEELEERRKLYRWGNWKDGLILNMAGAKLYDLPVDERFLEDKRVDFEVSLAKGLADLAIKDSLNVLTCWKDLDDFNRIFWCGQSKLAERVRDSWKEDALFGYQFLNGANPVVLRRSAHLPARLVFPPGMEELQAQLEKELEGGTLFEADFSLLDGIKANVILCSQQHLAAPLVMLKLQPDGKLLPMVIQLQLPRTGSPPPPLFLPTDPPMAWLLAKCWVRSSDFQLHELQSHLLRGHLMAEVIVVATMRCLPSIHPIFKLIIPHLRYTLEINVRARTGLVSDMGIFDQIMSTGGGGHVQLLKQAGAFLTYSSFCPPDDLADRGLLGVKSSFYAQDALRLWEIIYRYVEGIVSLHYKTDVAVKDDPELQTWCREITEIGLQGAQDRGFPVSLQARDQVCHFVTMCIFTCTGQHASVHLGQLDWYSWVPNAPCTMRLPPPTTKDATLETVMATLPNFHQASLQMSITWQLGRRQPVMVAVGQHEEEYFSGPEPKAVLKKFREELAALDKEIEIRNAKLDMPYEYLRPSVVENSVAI

Row | Compound | pIC50 | Emax [%]
1 | CN(C)CCCCCC(=O)N(C)c1oc(-c2cc(Cl)cc(Cl)c2Cl)nc1C#N [Compound 61, N-(4-cyano-2-(2,3,5-trichlorophenyl)oxazol-5-yl)-6-(dimethylamino)-N-methylhexanamide hydrochloride] | < 4.70 | 
2 | CN(C)CCCCC(=O)N(C)c1oc(-c2cc(Cl)cc(Cl)c2Cl)nc1C#N [Compound 62, N-(4-Cyano-2-(2,3,5-trichlorophenyl)oxazol-5-yl)-5-(dimethylamino)-N-methylpentanamide hydrochloride] | 5.08 | 100
3 | CN(C)CCCCCC(=O)Nc1oc(-c2cc(Cl)cc(Cl)c2Cl)nc1C#N [Compound 63, N-(4-cyano-2-(2,3,5-trichlorophenyl)oxazol-5-yl)-6-(dimethylamino) hexanamide hydrochloride] | < 4.70 | 
4 | CN(C)CCCCC(=O)Nc1oc(-c2cc(Cl)cc(Cl)c2Cl)nc1C#N [Compound 64, N-(4-Cyano-2-(2,3,5-trichlorophenyl)oxazol-5-yl)-5-(dimethylamino)pentanamide hydrochloride] | < 4.70 | 
5 | CN(C)CCCC(=O)Nc1oc(-c2cc(Cl)cc(Cl)c2Cl)nc1C#N [Compound 65, N-(4-Cyano-2-(2,3,5-trichlorophenyl)oxazol-5-yl)-4-(dimethylamino)butanamide hydrochloride] | < 4.70 | 
6 | CN(C)CCCNC(=O)N(C)c1oc(-c2cc(Cl)cc(Cl)c2Cl)nc1C#N [Compound 66, 1-(4-cyano-2-(2,3,5-trichlorophenyl)oxazol-5-yl)-3-(3-(dimethylamino)propyl)-1-methylurea hydrochloride] | < 4.70 | 
7 | CN(C)CCCNC(=O)Nc1oc(-c2cc(Cl)cc(Cl)c2Cl)nc1C#N [Compound 67, 1-(4-cyano-2-(2,3,5-trichlorophenyl)oxazol-5-yl)-3-(3-(dimethylamino)propyl) urea hydrochloride] | < 4.70 | 
8 | CN(c1oc(-c2cc(Cl)cc(Cl)c2Cl)nc1C#N)P(=O)(O)O [Compound 68, (4-cyano-2-(2,3,5-trichlorophenyl)oxazol-5-yl)(methyl)phosphoramidic acid] | < 4.70 | 
9 | N#Cc1nc(-c2cc(Cl)cc(Cl)c2Cl)oc1NCCOCCN1CCCC(F)C1 (centres unmarked) [Compound 74, 5-((2-(2-(3-Fluoropiperidin-1-yl)ethoxy)ethyl)amino)-2-(2,3,5-trichlorophenyl)oxazole-4-carbonitrile] | < 4.70 | 
10 | N#Cc1nc(-c2cc(Cl)cc(Cl)c2Cl)oc1NCCOCCN1CCCC(F)(F)C1 [Compound 75, 5-((2-(2-(3,3-Difluoropiperidin-1-yl)ethoxy)ethyl)amino)-2-(2,3,5-trichlorophenyl)oxazole-4-carbonitrile] | 5.96 | 61
11 | N#Cc1nc(-c2cc(Cl)cc(Cl)c2Cl)oc1NCCOCCOc1cccnc1 [Compound 76, 5-((2-(2-(Pyridin-3-yloxy)ethoxy)ethyl)amino)-2-(2,3,5-trichlorophenyl)oxazole-4-carbonitrile] | 6.60 | 74
12 | N#Cc1nc(-c2cc(Cl)cc(Cl)c2Cl)oc1NCCOCCN1CCC(F)C1 (centres unmarked) [Compound 78, 5-((2-(2-(3-Fluoropyrrolidin-1-yl)ethoxy)ethyl)amino)-2-(2,3,5-trichlorophenyl)oxazole-4-carbonitrile] | < 4.70 | 49
13 | N#Cc1nc(-c2cc(Cl)cc(Cl)c2Cl)oc1NCCOCCOc1cccnn1 [Compound 79, 5-((2-(2-(Pyridazin-3-yloxy)ethoxy)ethyl)amino)-2-(2,3,5-trichlorophenyl)oxazole-4-carbonitrile] | < 4.70 | 17
14 | N#Cc1nc(-c2cc(Cl)cc(Cl)c2Cl)oc1NCCOCCN1CCC(F)CC1 [Compound 80, 5-((2-(2-(4-Fluoropiperidin-1-yl)ethoxy)ethyl)amino)-2-(2,3,5-trichlorophenyl)oxazole-4-carbonitrile] | < 4.70 | 
15 | N#Cc1nc(-c2cc(Cl)cc(Cl)c2Cl)oc1NCCOCCNc1ccccc1 [Compound 81, 5-((2-(2-(Phenylamino)ethoxy)ethyl)amino)-2-(2,3,5-trichlorophenyl)oxazole-4-carbonitrile] | 6.59 | 95
16 | Cc1cc(OCCOCCNc2oc(-c3cc(Cl)cc(Cl)c3Cl)nc2C#N)cc(C)n1 [Compound 83, 5-((2-(2-((2,6-Dimethylpyridin-4-yl)oxy)ethoxy)ethyl)amino)-2-(2,3,5-trichlorophenyl)oxazole-4-carbonitrile] | 6.74 | 61
17 | COCCOc1ccc(COCC#CCNc2oc(-c3cc(Cl)cc(Cl)c3Cl)nc2C#N)cc1 [Compound 85] |  | 92
18 | N#Cc1nc(-c2cc(Cl)cc(Cl)c2Cl)oc1NCC#CCOCc1ccc(CCN2CCOCC2)cc1 [Compound 86] |  | 100
19 | N#Cc1nc(-c2cc(Cl)cc(Cl)c2Cl)oc1NCC#CCOCc1ccc(OCCN2CCOCC2)cc1 [Compound 87] |  | 94
20 | N#Cc1nc(-c2cc(Cl)cc(Cl)c2Cl)oc1NCC#CCOCc1ccncc1 [Compound 88, 5-((4-(Pyridin-4-ylmethoxy)but-2-yn-1-yl)amino)-2-(2,3,5-trichlorophenyl)oxazole-4-carbonitrile] | 7.09 | 74
21 | N#Cc1nc(-c2cc(Cl)cc(Cl)c2Cl)oc1NCC#CCOCc1ccc(C(=O)O)cc1 [Compound 89, 4-(((4-((4-Cyano-2-(2,3,5-trichlorophenyl)oxazol-5-yl)amino)but-2-yn-1-yl)oxy)methyl)benzoic acid] | 5.89 | 100
22 | CN(CCOCCNc1oc(-c2cc(Cl)cc(Cl)c2Cl)nc1C#N)c1ccncc1 [Compound 90, 5-((2-(2-(Methyl(pyridin-4-yl)amino)ethoxy)ethyl)amino)-2-(2,3,5-trichlorophenyl)oxazole-4-carbonitrile] | < 4.70 | 
23 | N#Cc1nc(-c2cc(Cl)cc(Cl)c2Cl)oc1NCCOCCNc1ccncc1 [Compound 91, 5-((2-(2-(Pyridin-4-ylamino)ethoxy)ethyl)amino)-2-(2,3,5-trichlorophenyl)oxazole-4-carbonitrile] | < 4.70 | 
24 | N#Cc1nc(-c2cc(Cl)cc(Cl)c2Cl)oc1NCCOCCN1CCC(F)(F)C1 [Compound 92, 5-((2-(2-(3,3-Difluoropyrrolidin-1-yl)ethoxy)ethyl)amino)-2-(2,3,5-trichlorophenyl)oxazole-4-carbonitrile] | 5.06 | 86
25 | CN(CCOCCNc1oc(-c2cc(Cl)cc(Cl)c2Cl)nc1C#N)c1ccccc1 [Compound 95, 5-((2-(2-(Methyl(phenyl)amino)ethoxy)ethyl)amino)-2-(2,3,5-trichlorophenyl)oxazole-4-carbonitrile] | 6.59 | 83
26 | N#Cc1nc(-c2cc(Cl)cc(Cl)c2Cl)oc1NCCOCCN1CCC(F)(F)CC1 [Compound 98, 5-((2-(2-(4,4-Difluoropiperidin-1-yl)ethoxy)ethyl)amino)-2-(2,3,5-trichlorophenyl)oxazole-4-carbonitrile] | 5.51 | 79

Now from value to molecule:

Row | pIC50 | Emax [%] | Compound
27 | 6.48 | 100 | CCOCCOCCNc1oc(-c2cc(Cl)cc(Cl)c2Cl)nc1C#N [Compound 69, 5-((2-(2-Ethoxyethoxy)ethyl)amino)-2-(2,3,5-trichlorophenyl)oxazole-4-carbonitrile]
28 | 5.96 | 110 | N#Cc1nc(-c2cc(Cl)cc(Cl)c2Cl)oc1NCCOCCOCCF [Compound 70, 5-((2-(2-(2-Fluoroethoxy)ethoxy)ethyl)amino)-2-(2,3,5-trichlorophenyl)oxazole-4-carbonitrile]
29 | 6.80 | 95 | N#Cc1nc(-c2cc(Cl)cc(Cl)c2Cl)oc1NCCOCCOCC(F)(F)F [Compound 71, 2-(2,3,5-Trichlorophenyl)-5-((2-(2-(2,2,2-trifluoroethoxy)ethoxy)ethyl)amino)oxazole-4-carbonitrile]
30 | < 4.70 |  | N#Cc1nc(-c2cc(Cl)cc(Cl)c2Cl)oc1NCCOCCN1CC(F)(F)C1 [Compound 72, 5-((2-(2-(3,3-Difluoroazetidin-1-yl)ethoxy)ethyl)amino)-2-(2,3,5-trichlorophenyl)oxazole-4-carbonitrile]
31 | 6.33 | 70 | CN(CCOCCNc1oc(-c2cc(Cl)cc(Cl)c2Cl)nc1C#N)CC(F)(F)F [Compound 73, 5-((2-(2-(Methyl(2,2,2-trifluoroethyl)amino)ethoxy)ethyl)amino)-2-(2,3,5-trichlorophenyl)oxazole-4-carbonitrile]
32 | < 4.70 |  | N#Cc1nc(-c2cc(Cl)cc(Cl)c2Cl)oc1NCCOCCN1CC(F)C1 [Compound 77, 5-((2-(2-(3-Fluoroazetidin-1-yl)ethoxy)ethyl)amino)-2-(2,3,5-trichlorophenyl)oxazole-4-carbonitrile]
33 | 6.44 | 82 | N#Cc1nc(-c2cc(Cl)cc(Cl)c2Cl)oc1NCCOCCOc1cncnc1 [Compound 82, 5-((2-(2-(Pyrimidin-5-yloxy)ethoxy)ethyl)amino)-2-(2,3,5-trichlorophenyl)oxazole-4-carbonitrile]
34 | 6.31 | 68 | N#Cc1nc(-c2cc(Cl)cc(Cl)c2Cl)oc1NCCOCCOc1ccncc1F [Compound 84, 5-((2-(2-((3-Fluoropyridin-4-yl)oxy)ethoxy)ethyl)amino)-2-(2,3,5-trichlorophenyl)oxazole-4-carbonitrile]
35 |  | 98 | N#Cc1nc(-c2cc(Cl)cc(Cl)c2Cl)oc1NCCOCCNCCF [Compound 93]
36 | 6.52 | 77 | N#Cc1nc(-c2cc(Cl)cc(Cl)c2Cl)oc1NCCOCCNCC(F)(F)F [Compound 94, 2-(2,3,5-Trichlorophenyl)-5-((2-(2-((2,2,2-trifluoroethyl)amino)ethoxy)ethyl)amino)oxazole-4-carbonitrile]
37 | 5.36 | 93 | CN(CCF)CCOCCNc1oc(-c2cc(Cl)cc(Cl)c2Cl)nc1C#N [Compound 96, 5-((2-(2-((2-Fluoroethyl)(methyl)amino)ethoxy)ethyl)amino)-2-(2,3,5-trichlorophenyl)oxazole-4-carbonitrile]
38 | 6.96 | 68 | N#Cc1nc(-c2cc(Cl)cc(Cl)c2Cl)oc1NCCOCCOc1ccncc1 [Compound 97, 5-((2-(2-(Pyridin-4-yloxy)ethoxy)ethyl)amino)-2-(2,3,5-trichlorophenyl)oxazole-4-carbonitrile]

Reference: patent US20240336642A1 (The General Hospital Corporation, priority 2021, published 2024)
